From patent publication US6747125B1, “Peptides intermediates for making GnRH antagonists” (The Salk Institute for Biological Studies, priority 1991, dated 2004)

Assays:
ovulation in female rats = assay: in vivo testing of effectiveness to prevent ovulation in female rats; parameters: species or system Sprague-Dawley rats; conditions: injected at about noon on the day of proestrus, rats ovulating/rats treated
Experimental: The in vivo testing determines effectiveness to prevent ovulation in female rats. In this test, a specified number of mature female Sprague-Dawley rats, e.g. five to ten, each having a body weight from 225 to 250 grams, is injected with a specified microgram dosage of peptide in either saline, bacteriostatic water, polyethylene glycol, corn oil or mixtures of the above with ethanol at about noon on the day of proestrus. Proestrus is the afternoon […]. A separate female rat group is used as a control to which the peptide is not administered. Each of the control female rats ovulates on the evening of proestrus; of the rats treated, the number of them which ovulate is recorded. Each of the peptides is considered to be totally effective to prevent ovulation of female rats at a dose of about 500 micrograms.

[1] = tested on: LH levels in the bloodstream; assay: suppression of circulating LH in castrate male rats after single IV bolus; format: in vivo, Sprague-Dawley rats
From the text: In addition to the in vivo testing, mentioned above, to determine effectiveness to prevent ovulation in female rats, groups of about 6 adult castrate male Sprague-Dawley rats, each having a body weight from 225 to 250 grams, are each injected IV with a 50 microgram dosage of either Peptide No. 103A or a standard antagonist referred to as the Nal-Glu antagonist (see J. Clin. Edno. Metab., 71, 4, 881-888 (1990)) in either corn oil or a phosphate buffer in the presence of BSA (bovine serum albumin). A separate rat group is used as a control, to which only the carrier is administered. Each of the control rats and the rats being treated are monitored for LH levels in the bloodstream at about 3 hours, 24 hours, 36 hours and 48 hours following this single bolus injection.

**Q.** Which “Rats Ovulating” value (ovulation in female rats; dosage 0.5 micrograms) does the source give for “Ac-β-D-2NAL-(4Cl)D-Phe-D-3PAL-Ser-Aph(3-amino 1,2,4 triazole)-D-Aph(3-amino 1,2,4 triazole)-Leu-Lys(isopropyl)-Pro-D-Ala-NH2 [Peptide 103A]” here?
**A.** 7/8

**Q.** What about the “Rats Ovulating” value (ovulation in female rats; dosage 1.0 micrograms) of the same substance?
**A.** 0/7

**Q.** And the “Rats Ovulating” value (ovulation in female rats; dosage 2.5 micrograms)?
**A.** 0/8

**Q.** What about the “level of circulating LH in the bloodstream relative to Nal-Glu antagonist” value ([1]; 50 microgram IV, after 12 hours) of the same substance?
**A.** below that of the rats treated with the Nal-Glu antagonist

**Q.** And the “level of circulating LH in the bloodstream relative to control” value ([1]; 50 microgram IV, monitored at about 3, 24, 36 and 48 hours)?
**A.** very substantially below that of the control

**Q.** And the “duration of biological effect (LH suppression)” value ([1]; single 50 microgram IV bolus injection)?
**A.** very long-acting

**Q.** What does the source list for “Ac-β-D-2NAL-(4Cl)D-Phe-D-3PAL-Ser-Lys (isopropyl cyanoguanidino)-D-Lys(isopropyl cyanoguanidino)-Leu-Lys(isopropyl)-Pro-D-Ala-NH2 [Peptide 1]”?
**A.** Rats Ovulating (ovulation in female rats; dosage 1.0 micrograms): 0/5; Rats Ovulating (ovulation in female rats; dosage 2.5 micrograms): 0/9
